Experimental data from ChEMBL document CHEMBL1201862, “PubChem BioAssay data set” (2004).
Active and inactive are the calls of the source.

Columns and labels:
[1] = BJeHLT cell viability loss – BJeHLT cells, dry powder, counter-screen for Ras selective lethality project, dose response (AID 493052); type: functional, cell-based; conditions: Homo sapiens
[2] = HRAS-V12 fibroblast viability reduction – cell-based, Alamar Blue, dry powder, Ras selective lethality project, primary screen (AID 493045); type: functional; conditions: BJeLR
[3] = BJeH cell viability loss – BJeH cells, dry powder, counter-screen for Ras selective lethality project, dose response (AID 493054); type: functional, cell-based
[4] = DRD BJ cell killing, Ras synthetic lethality – DRD BJ fibroblasts, HRASV12, dry powder, dose response (AID 493049); type: functional, cell-based
Coagulation factor XII = molecular target: T1, Coagulation factor XII (Homo sapiens, UniProt P00748); type: functional;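 note: activated factor XIIa alpha cleaving a fluorogenic AMC peptide substrate; inhibitor potency from loss of enzyme activity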
T1 sequence (P00748 whole entry): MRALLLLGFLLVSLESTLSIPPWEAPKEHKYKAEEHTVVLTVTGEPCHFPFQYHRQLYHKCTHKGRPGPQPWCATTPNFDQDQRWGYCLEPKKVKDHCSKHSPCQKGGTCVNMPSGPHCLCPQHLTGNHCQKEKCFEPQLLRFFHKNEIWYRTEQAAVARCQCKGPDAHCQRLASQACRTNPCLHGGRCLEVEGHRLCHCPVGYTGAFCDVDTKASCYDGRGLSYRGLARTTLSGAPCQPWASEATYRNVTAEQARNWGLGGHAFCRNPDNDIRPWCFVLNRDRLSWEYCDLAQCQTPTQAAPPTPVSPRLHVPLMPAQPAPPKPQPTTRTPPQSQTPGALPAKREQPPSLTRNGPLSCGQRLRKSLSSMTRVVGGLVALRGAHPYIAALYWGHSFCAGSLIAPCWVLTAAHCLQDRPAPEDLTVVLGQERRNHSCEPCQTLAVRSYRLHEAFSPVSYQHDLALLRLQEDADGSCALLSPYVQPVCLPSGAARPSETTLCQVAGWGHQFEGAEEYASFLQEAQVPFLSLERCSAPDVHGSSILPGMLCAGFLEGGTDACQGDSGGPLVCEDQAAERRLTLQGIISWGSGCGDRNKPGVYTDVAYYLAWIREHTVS

Phosphomannomutase 2 = Phosphomannomutase 2 (Homo sapiens, UniProt O15305); assay: Counter screen SAR assay for PMM2 inhibitors via a fluorescence intensity assay. [Related pubchem assays (depositor defined):AID1545, AID1574]
Phosphomannomutase 2, sequence (O15305 whole entry): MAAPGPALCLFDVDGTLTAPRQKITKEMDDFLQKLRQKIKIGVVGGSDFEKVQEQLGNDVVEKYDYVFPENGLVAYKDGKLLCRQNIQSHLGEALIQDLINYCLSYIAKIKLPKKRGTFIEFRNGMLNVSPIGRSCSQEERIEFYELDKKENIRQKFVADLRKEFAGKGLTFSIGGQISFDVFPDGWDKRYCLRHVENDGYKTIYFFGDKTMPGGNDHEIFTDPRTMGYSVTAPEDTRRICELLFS

[5] = molecular target: T2, Mannose-6-phosphate isomerase (Homo sapiens, UniProt P34949); assay: phosphomannose isomerase inhibition – biochemical, fluorescence intensity, confirmation (AID 1535)
T2 sequence (P34949 whole entry): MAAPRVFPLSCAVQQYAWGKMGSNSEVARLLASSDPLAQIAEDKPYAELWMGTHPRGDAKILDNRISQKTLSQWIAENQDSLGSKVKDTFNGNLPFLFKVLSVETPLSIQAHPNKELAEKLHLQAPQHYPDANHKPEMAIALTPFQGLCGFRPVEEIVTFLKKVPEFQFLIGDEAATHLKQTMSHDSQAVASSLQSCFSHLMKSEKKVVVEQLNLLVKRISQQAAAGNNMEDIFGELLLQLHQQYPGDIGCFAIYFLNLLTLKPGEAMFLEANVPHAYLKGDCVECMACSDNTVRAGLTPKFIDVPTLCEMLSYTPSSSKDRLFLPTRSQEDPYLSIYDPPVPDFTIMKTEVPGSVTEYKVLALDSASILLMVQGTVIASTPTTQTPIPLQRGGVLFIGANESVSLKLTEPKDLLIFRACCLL

Cytochrome P450 2C19 = Cytochrome P450 2C19 (Homo sapiens, UniProt P33261); assay: Cytochrome panel assay with activity outcomes. Panel member name: p450-cyp2c19 Compounds with AC50 equal or less than 10 uM are considered active; type: functional
Cytochrome P450 2C19, sequence (P33261 whole entry): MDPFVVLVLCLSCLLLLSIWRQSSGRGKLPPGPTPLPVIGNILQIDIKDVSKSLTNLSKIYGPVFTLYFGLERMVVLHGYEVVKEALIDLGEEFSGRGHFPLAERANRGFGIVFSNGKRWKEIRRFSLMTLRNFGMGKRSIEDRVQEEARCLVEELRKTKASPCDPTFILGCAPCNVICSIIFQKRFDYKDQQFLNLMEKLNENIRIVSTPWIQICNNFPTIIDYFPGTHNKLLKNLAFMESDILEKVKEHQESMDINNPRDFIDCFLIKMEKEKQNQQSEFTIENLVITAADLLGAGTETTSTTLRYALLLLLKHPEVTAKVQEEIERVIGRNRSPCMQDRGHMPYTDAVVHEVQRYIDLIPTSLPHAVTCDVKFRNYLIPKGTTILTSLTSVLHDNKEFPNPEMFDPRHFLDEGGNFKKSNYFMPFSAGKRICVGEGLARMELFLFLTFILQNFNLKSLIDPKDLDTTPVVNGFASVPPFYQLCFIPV

Cytochrome P450 2D6 = Cytochrome P450 2D6 (Homo sapiens, UniProt P10635);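 note: CYP2D6 member of a cytochrome P450 panel assay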
Cytochrome P450 2D6, sequence (P10635 whole entry): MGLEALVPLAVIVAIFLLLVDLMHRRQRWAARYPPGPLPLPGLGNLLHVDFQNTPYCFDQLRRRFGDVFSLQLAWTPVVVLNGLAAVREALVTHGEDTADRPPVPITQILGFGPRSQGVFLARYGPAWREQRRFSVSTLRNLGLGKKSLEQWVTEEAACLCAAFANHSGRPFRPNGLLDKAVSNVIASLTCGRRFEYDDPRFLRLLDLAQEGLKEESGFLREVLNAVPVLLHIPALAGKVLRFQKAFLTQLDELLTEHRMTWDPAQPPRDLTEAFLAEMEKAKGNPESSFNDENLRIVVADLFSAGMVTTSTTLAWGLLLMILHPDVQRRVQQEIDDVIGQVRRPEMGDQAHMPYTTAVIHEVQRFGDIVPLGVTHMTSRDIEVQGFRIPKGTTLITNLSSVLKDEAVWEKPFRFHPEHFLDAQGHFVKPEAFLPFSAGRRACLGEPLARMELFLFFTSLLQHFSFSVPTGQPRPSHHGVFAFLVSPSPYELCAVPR

Cytochrome P450 3A4 = Cytochrome P450 3A4 (Homo sapiens, UniProt P08684);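 note: CYP3A4 tested as one member of a cytochrome P450 panel screen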
Cytochrome P450 3A4, sequence (P08684 whole entry): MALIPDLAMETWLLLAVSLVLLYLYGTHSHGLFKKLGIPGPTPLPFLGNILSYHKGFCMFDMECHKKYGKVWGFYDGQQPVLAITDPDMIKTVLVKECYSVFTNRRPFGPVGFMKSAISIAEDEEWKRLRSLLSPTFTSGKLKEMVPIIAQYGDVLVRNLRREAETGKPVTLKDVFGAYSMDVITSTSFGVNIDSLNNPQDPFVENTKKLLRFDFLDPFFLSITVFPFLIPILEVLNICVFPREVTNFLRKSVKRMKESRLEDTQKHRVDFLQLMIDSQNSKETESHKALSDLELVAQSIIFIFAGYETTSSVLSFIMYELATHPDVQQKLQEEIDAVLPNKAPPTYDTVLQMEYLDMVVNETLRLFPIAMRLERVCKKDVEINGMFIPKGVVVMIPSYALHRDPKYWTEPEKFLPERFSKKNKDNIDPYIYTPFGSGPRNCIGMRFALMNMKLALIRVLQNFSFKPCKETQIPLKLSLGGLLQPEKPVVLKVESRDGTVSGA

Cytochrome P450 1A2 = molecular target: T3, Cytochrome P450 1A2 (Homo sapiens, UniProt P05177);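 note: PubChem cytochrome P450 panel assay, CYP1A2 panel member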
T3 sequence (P05177 whole entry): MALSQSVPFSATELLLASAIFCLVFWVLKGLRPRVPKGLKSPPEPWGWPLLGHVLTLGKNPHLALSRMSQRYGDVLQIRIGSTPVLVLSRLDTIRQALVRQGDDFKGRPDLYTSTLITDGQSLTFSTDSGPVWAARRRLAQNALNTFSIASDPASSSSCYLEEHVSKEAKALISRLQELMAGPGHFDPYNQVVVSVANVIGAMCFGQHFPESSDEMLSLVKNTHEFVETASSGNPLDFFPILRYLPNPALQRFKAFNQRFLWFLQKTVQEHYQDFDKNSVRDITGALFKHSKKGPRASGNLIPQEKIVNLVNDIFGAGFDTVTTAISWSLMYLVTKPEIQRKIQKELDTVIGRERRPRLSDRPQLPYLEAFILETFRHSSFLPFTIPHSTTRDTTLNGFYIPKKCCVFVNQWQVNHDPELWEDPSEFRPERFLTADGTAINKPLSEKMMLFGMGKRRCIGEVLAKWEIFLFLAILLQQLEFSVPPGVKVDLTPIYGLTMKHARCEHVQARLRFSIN

| IC50 (Coagulation factor XII) | Structure (SMILES) | AC50 [1] | AC50 [2] | AC50 [3] | AC50 [4] | further results |
| --- | --- | --- | --- | --- | --- | --- |
|  | COc1ccc(N(C(=O)CCl)C(C(=O)NC2CCCCC2)c2cccs2)cc1Cl (stereo unspecified) | 270 nM (active) | 113 nM (active) | 455 nM (active) | 120 nM (active) |  |
| > 50000 nM (inactive) | CC(=O)Nc1nonc1NC(=O)CSc1ccccn1 |  |  |  |  |  |
|  | Cc1ccc(/N=c2\ssnc2Cl)nc1 |  |  |  |  | IC50 (Phosphomannomutase 2): > 100000 nM (inactive); IC50 [5]: > 100000 nM (inactive) |
|  | COc1ccc(N(C(=O)CCl)C(C(=O)NCn2nnc3ccccc32)c2cccs2)cc1Cl (stereo unspecified) | 242 nM (active) | 102 nM (active) | 432 nM (active) | 97 nM (active) |  |
| > 50000 nM (inactive) | CCOc1cc(/C=N/n2cnnc2)cc(Br)c1O |  |  |  |  |  |
|  | O=C([O-])Cc1ccccc1Nc1c(Cl)cccc1Cl.[Na+] [DICLOFENAC SODIUM] |  |  |  |  | AC50 (Cytochrome P450 2C19): inactive; AC50 (Cytochrome P450 2D6): inactive; AC50 (Cytochrome P450 3A4): inconclusive; AC50 (Cytochrome P450 1A2): inactive |
